Source: US20240132467A1, “BENZIMIDAZOLE DERIVATIVES FOR TREATING RESPIRATORY DISEASE” (TMEM16A Limited, priority 2020, published 2024)

Target: T1, human TMEM16A (TMEM16Aabc variant) (Homo sapiens, UniProt Q5XXA6, DEL476-501)
T1 sequence (Q5XXA6 with tags, fused parts or gaps isoform Q5XXA6-5 DEL539-564): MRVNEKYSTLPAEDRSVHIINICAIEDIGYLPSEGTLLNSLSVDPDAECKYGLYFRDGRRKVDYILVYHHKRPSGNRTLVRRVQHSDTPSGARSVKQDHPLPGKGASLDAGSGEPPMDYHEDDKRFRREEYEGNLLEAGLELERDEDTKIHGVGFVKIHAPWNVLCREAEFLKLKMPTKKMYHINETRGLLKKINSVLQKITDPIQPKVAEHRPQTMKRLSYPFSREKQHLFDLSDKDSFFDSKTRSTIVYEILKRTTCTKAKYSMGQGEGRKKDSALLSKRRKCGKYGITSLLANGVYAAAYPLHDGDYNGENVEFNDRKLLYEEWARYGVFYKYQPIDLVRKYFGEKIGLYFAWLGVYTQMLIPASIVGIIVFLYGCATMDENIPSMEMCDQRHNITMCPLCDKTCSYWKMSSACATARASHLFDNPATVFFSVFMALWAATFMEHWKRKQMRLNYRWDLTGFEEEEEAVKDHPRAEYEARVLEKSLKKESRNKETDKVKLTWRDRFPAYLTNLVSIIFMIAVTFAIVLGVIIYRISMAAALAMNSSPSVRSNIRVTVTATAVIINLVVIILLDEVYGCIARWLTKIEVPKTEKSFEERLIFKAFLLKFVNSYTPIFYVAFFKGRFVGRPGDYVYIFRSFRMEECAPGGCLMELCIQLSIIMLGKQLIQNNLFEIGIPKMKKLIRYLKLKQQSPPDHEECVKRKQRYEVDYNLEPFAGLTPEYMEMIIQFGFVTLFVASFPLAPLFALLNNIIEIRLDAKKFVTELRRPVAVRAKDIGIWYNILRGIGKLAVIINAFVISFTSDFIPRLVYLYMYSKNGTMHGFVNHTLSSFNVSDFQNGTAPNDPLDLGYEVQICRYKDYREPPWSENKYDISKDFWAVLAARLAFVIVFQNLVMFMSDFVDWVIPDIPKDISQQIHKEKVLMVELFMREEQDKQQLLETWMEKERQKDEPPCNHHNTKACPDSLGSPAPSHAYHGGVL
Test: Automated whole-cell patch clamp (Qpatch) TMEM16A potentiator assay in FRT cells stably expressing human TMEM16A
Type: cell-based
Conditions: for activation at 3.33 µM: 3.33 μM test compound, percentage increase of baseline TMEM16A current at +70 mV, intracellular calcium at EC20, read-out: % Potentiation @ 3.33 μM Avg; for EC50: cumulative concentration response, 5 min per concentration, whole-cell patch clamp
Description: Automated whole-cell patch clamp assay to detect TMEM16A activity in recombinant cells Cell culture and preparation
Fisher rat thyroid (FRT) cells stably expressing human TMEM16A (TMEM16Aabc variant; Dr Luis Galietta, Insituto Giannina, Italy) were cultured in T-75 flasks in Hams F-12 media with Coon's modification (Sigma) supplemented with 10% (v/v) foetal bovine serum, penicillin-streptomycin (10,000 U/mL/10000 μg/mL), G-418 (750μg/mL), L-glutamine (2 mM) and sodium bicarbonate solution (7.5% v/v). At —90% confluence cells were harvested for experiments by detachment with a 2:1 (v/v) mixture of Detachin (BMS Biotechnology) and 0.25% (w/v) trypsin-EDTA. Cells were diluted to a density of 3.5-4.5×10^6 cells/mL with media consisting of CHO-S-SFM II (Sigma), 25 mM HEPES (Sigma) and Soy bean trypsin inhibitor (Sigma).
Whole-Cell Patch Clamp Recording
FRT-TMEM16A cells were whole-cell patch clamped using an automated planar patch clamp system (Qpatch, Sophion). Briefly, once high resistance (GOhm) seals were established between the cells and the planar recording array the patch was ruptured using suction pulses to establish the whole-cell recording configuration of the patch clamp technique. The assay employed the following solutions (all reagents Sigma):
Intracellular solution (mM): N-methyl-D-glucamine 130, CaCl2 18.2, MgCl2 1, HEPES 10, EGTA 10, BAPTA 20, Mg-ATP 2, pH 7.25, 325mOsm with sucrose.
Extracellular solution (mM): N-methyl-D-glucamine 130, CaCl2 2, MgCl2 1, HEPES 10, pH 7.3, 320 mOsm with sucrose.
The intracellular solution buffers intracellular calcium at levels required to give —20% activation of the maximal TMEM16A mediated current (EC20 for calcium ions). Cells were voltage clamped at a holding potential of -70mV and a combined voltage step (to +70 mV)/ramp (−90 my to +90 mV) was applied at 0.05 Hz. After a period of current stabilisation test compounds, solubilised in 100% (v/v) DMSO and subsequently diluted into extracellular solution, were applied to generate a cumulative concentration response curve. Each concentration of test compound was incubated for 5 minutes before addition of the next concentration. After the final concentration was tested a supramaximal concentration of either a known active positive modulator or the TMEM16A inhibitor, CaCCinhA01 (Del La Fuente et al, 2008) was added to define the upper and lower limits of the assay.
Compound activity was quantified by measuring the increase in current upon compound addition and expressing this as a percentage increase of baseline TMEM16A current level. Percentage increases in current were determined for each concentration and the data plotted as a function of concentration using either the Qpatch software or Graphpad Prism v6.05 providing the concentration which gave 50% of its maximal effect (EC50) and maximum efficacy (percentage of baseline increase).
In FIG. 1, IBL equals baseline current, km equals the peak current during test compound concentration 1 incubation period and so on.
Peak TMEM16A current at +70mV was plotted as a function of time over the assay period. Baseline current (IBL) was measured after a period of stabilisation. The increase in current for each compound addition was determined by taking the peak current during the incubation period and subtracting the current from the previous recording period and then expressing this as a percentage of the baseline current. For test compound concentration 1 in FIG. 1 this is:
For each additional concentration tested the increase in current was determined by subtracting the current from the previous incubation period and normalising the baseline value—for test concentration 2 in FIG. 1 this is:
The values for each test concentration were plotted as a cumulative function of concentration e.g. for test concentration two this would be the sum of the peak changes measured during concentration one plus concentration two.

Structure (SMILES) | activation at 3.33 µM [%] | EC50 [nM]
CC1(CNC(=O)c2ccc3[nH]c(Cc4ccccc4)nc3c2)CCCCC1 [Example 1.10.1, 2-Benzyl-N-1(1-methylcyclohexyl)methylj-1H-benzimidazole-5-carboxamide] | 124 | 210
O=C(NCC1CCCCCCC1)c1ccc2[nH]c(Cc3ccccc3)nc2c1 [Example 1.10.2, 2-Benzyl-N-(cyclooctylmethyl)-1H-benzimidazole-5-carboxamide] | 76.1 | 192
O=C(CC1CCC(F)(F)CC1)Nc1ccc2[nH]c(Cc3ccccc3)nc2c1 [Example 2.1.1] | 47.6 | 582
CN(C(=O)OC(C)(C)C)[C@H](c1ccccc1)c1nc2cc(NC(=O)CC3C4CC5CC(C4)CC3C5)ccc2[nH]1 (stereo partly shown) [Example 2.2.1] | 97.7 | 907
CN(C(=O)OC(C)(C)C)[C@@H](c1ccccc1)c1nc2cc(NC(=O)CC3C4CC5CC(C4)CC3C5)ccc2[nH]1 (stereo partly shown) [Example 2.2.2] | 127 | 948
CCN(Cc1nc2ccc(NC(=O)CC3C4CC5CC(C4)CC3C5)cc2[nH]1)C(=O)OC(C)(C)C (stereo not shown) [Example 2.2.3] | 155 | 1040
COCCN(Cc1nc2ccc(NC(=O)CC3C4CC5CC(C4)CC3C5)cc2[nH]1)C(=O)OC(C)(C)C (stereo not shown) [Example 2.2.4] | 190 | 1080
COCCc1nc2ccc(NC(=O)CC3C4CC5CC(C4)CC3C5)cc2[nH]1 (stereo not shown) [Example 2.2.5, 2-(2-Adamantyl)-N[2-(2-methoxyethyl)-3H-benzimidazol-5-yl]acetamide] | 113 | 758
COCCCc1nc2cc(NC(=O)CC3C4CC5CC(C4)CC3C5)ccc2[nH]1 (stereo not shown) [Example 2.2.6, 2-(2-Adamantyl)-N[2-(3-methoxypropyl)-1H-benzimidazol-5-yl]acetamide] | 167 | 780
O=C(NCC1CCCCCC1)c1cc2nc(Cc3cccc(O)c3)[nH]c2cc1F [Example 3.3.1, N-(Cycloheptylmethyl)-6-fluoro-2-[(3-hydroxyphenyl)methyl]-1H-benzimidazole-5-carboxamide] | 95.8 | 471
O=C(NCC1CCCCCC1)c1ccc2[nH]c(Cc3cccc(O)c3)nc2c1F [Example 3.3.2, N-(Cycloheptylmethyl)-4-fluoro-2-[(3-hydroxyphenyl)methyl]-1H-benzimidazole-5-carboxamide] | 90.2 | 598
Cc1noc(C)c1Cc1nc2cc(NC(=O)CC3C4CC5CC(C4)CC3C5)ccc2[nH]1 (stereo not shown) [Example 3.4.1] | 116 | 576
CC(C)(C)C(C)(C)NC(=O)c1ccc2[nH]c(Cc3ccccc3)nc2c1 [Example 3.5.1, 2-Benzyl-N-(1,1,2,2-tetramethylpropyl)-1H-benzimidazole-5-carboxamide] | 89.5 | 779

Other lines, results leading:

activation at 3.33 µM [%] | EC50 [nM] | Structure (SMILES)
215 | 860 | CC(C)(C)OC(=O)NCC1(CC(=O)Nc2ccc3[nH]c(Cc4ccccc4)nc3c2)CCCCC1 [Example 2.1, tert-Butyl N-[[1-[2-[(2-benzyl-1H-benzimidazol-5-yl)amino]-2-oxo-ethyl]cyclohexyl]methyl]carbamate]
197 | 622 | COCC(NC(=O)OC(C)(C)C)c1nc2cc(NC(=O)CC3C4CC5CC(C4)CC3C5)ccc2[nH]1 (stereo not shown) [Example 2.2, tert-Butyl N-[1-[5-[[2-(2-adamantyl)acetyl]amino]-1H-benzimidazol-2-yl]-2-methoxy-ethyl]carbamate]
201 | 1070 | CN(Cc1nc2cc(NC(=O)CC3C4CC5CC(C4)CC3C5)ccc2[nH]1)C(=O)OC(C)(C)C (stereo not shown) [Example 2.3, tert-Butyl N-[[5-[[2-(2-adamanty)acetyl]amino]-1H-benzimidazol-2-yl]methyl]-N-methyl-carbamate]
133 | 658 | O=C(NCC1CCCCCC1)c1ccc2[nH]c(C3COc4ccccc43)nc2c1 (stereo not shown) [Example 2.4, N-(Cycloheptylmethyl)-2-(2,3-dihydrobenzofuran-3-yl)-1H-benzimidazole-5-carboxamide]
58.9 | 150 | O=C(CC1C2CC3CC(C2)CC1C3)Nc1ccc2[nH]c(C(O)c3ccccc3)nc2c1 (stereo not shown) [Example 2.5, 2-(2-Adamantyl)-N-12-[hydroxy(phenyl)methyl]-1H-benzimidazol-5-yljacetamide]
74 | 287 | O=C(CC1CCCCC1)Nc1ccc2[nH]c(-c3ccccc3)nc2c1 [Example 3.1, 2-Cyclohexyl-N-(2-phenyl-1H-benzimidazol-5-yl)acetamide]
58.5 | 332 | O=C(Nc1ccc2[nH]c(Cc3ccccc3)nc2c1)C12CC3CC(CC(C3)C1)C2 [Example 3.2, N-(2-Benzyl-1H-benzimidazol-5-yl)adamantane-1-carboxamide]
114 | 554 | O=C(NCC1CCCCCC1)c1cc(F)c2[nH]c(Cc3cccc(O)c3)nc2c1 [Example 3.3, N-(Cycloheptylmethyl)-7-fluoro-2-[(3-hydroxyphenyl)methyl]-1H-benzimidazole-5-carboxamide]
99.8 | 471 | CC(C)(C)OC(=O)NCCc1nc2cc(NC(=O)CC3C4CC5CC(C4)CC3C5)ccc2[nH]1 (stereo not shown) [Example 3.4]
144 | 1020 | CC(C)(C)CNC(=O)c1ccc2[nH]c(Cc3ccccc3)nc2c1 [Example 3.5, 2-Benzyl-N-(2,2-dimethylpropyl)-1H-benzimidazole-5-carboxamide]
